Data as given in ChEMBL document CHEMBL3124838, “Discovery of 6-aryl-azabenzimidazoles that inhibit the TBK1/IKK-ε kinases” (Bioorg Med Chem Lett, 2014).

Assays:
[1] = biological target: Glycogen synthase kinase-3 beta (Homo sapiens) (UniProt P49841); test: Inhibition of human GSK3beta assessed as residual activity at 1 uM relative to control
Aurora kinase B = Aurora kinase B (Homo sapiens, UniProt Q96GD4); test: Inhibition of human Aurora-B assessed as residual activity at 1 uM relative to control
Sequence of Aurora kinase B (Q96GD4 whole entry): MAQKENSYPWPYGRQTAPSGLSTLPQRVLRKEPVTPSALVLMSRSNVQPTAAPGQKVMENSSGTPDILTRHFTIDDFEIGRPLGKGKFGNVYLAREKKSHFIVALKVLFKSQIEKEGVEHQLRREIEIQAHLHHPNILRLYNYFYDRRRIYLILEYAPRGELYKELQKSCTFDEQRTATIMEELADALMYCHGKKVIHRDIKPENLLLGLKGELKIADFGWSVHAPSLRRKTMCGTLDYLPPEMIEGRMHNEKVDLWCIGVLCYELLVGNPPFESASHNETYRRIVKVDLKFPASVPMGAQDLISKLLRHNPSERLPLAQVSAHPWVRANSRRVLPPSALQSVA

[2] = biological target: Mast/stem cell growth factor receptor Kit (Homo sapiens) (UniProt P10721); test: Inhibition of human cKIT assessed as residual activity at 1 uM relative to control
Sequence of Mast/stem cell growth factor receptor Kit (Homo sapiens) (P10721 whole entry): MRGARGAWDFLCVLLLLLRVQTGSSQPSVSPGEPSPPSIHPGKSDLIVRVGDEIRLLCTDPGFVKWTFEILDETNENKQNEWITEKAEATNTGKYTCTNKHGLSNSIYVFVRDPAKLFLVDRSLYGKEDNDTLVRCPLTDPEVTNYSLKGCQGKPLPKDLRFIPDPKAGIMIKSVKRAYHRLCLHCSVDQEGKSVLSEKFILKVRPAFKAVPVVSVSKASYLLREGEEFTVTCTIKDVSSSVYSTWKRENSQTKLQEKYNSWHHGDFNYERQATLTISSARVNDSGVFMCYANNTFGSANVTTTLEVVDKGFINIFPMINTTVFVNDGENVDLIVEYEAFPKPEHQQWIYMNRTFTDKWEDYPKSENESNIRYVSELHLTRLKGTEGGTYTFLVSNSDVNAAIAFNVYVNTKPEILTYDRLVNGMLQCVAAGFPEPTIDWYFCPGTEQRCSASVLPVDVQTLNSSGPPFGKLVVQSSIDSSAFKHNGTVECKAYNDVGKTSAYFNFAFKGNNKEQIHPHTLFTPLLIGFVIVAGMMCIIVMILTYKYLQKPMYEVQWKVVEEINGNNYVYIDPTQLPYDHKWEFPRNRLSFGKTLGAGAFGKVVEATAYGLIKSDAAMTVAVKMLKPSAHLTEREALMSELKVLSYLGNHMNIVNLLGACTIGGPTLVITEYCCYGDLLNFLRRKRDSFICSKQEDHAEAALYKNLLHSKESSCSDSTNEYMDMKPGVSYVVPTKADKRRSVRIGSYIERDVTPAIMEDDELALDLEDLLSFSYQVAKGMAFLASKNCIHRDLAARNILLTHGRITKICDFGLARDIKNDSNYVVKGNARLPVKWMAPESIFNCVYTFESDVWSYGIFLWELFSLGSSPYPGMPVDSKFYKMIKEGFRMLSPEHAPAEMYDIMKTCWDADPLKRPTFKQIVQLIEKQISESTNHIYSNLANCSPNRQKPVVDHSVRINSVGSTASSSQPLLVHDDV

[3] = biological target: Ribosomal protein S6 kinase alpha-1 (Homo sapiens) (UniProt Q15418); test: Inhibition of human RSK1 assessed as residual activity at 1 uM relative to control
Sequence of Ribosomal protein S6 kinase alpha-1 (Homo sapiens) (Q15418 whole entry): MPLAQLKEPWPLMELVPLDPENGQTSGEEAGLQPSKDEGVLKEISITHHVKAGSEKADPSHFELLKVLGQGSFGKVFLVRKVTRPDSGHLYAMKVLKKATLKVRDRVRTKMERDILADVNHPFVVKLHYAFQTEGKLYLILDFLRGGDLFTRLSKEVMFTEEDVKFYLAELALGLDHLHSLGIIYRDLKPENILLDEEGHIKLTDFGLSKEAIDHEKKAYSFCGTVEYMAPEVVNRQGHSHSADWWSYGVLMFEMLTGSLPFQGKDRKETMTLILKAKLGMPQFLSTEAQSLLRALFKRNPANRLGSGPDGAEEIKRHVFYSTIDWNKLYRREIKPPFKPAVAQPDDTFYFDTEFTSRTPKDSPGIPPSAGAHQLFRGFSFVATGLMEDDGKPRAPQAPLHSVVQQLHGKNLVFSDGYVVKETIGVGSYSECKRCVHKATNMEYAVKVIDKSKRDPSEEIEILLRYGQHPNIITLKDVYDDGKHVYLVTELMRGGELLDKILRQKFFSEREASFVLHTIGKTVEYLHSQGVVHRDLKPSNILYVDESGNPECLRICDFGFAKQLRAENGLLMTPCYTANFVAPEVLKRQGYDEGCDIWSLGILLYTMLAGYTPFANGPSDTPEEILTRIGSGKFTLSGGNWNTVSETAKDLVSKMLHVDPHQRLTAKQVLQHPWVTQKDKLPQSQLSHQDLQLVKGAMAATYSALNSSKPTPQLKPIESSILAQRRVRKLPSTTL

[4] = biological target: Protein kinase C alpha type (Homo sapiens) (UniProt P17252); test: Inhibition of human PKCalpha assessed as residual activity at 1 uM relative to control
[5] = biological target: PI3-kinase p110-delta/p85-alpha (Homo sapiens) (UniProt P27986+O00329); test: Inhibition of human PI3K p110delta/p85alpha assessed as residual activity at 1 uM relative to control; type: protein-complex assay
[6] = biological target: SRSF protein kinase 1 (Homo sapiens) (UniProt Q96SB4); test: Inhibition of human SRPK1 assessed as residual activity at 1 uM relative to control
[7] = biological target: Proto-oncogene tyrosine-protein kinase ROS (Homo sapiens) (UniProt P08922); test: Inhibition of human ROS assessed as residual activity at 1 uM relative to control
[8] = biological target: Tyrosine-protein kinase Lck (Homo sapiens) (UniProt P06239); test: Inhibition of human activated LCK assessed as residual activity at 1 uM relative to control
Sequence of Tyrosine-protein kinase Lck (Homo sapiens) (P06239 2-509 limits assumed): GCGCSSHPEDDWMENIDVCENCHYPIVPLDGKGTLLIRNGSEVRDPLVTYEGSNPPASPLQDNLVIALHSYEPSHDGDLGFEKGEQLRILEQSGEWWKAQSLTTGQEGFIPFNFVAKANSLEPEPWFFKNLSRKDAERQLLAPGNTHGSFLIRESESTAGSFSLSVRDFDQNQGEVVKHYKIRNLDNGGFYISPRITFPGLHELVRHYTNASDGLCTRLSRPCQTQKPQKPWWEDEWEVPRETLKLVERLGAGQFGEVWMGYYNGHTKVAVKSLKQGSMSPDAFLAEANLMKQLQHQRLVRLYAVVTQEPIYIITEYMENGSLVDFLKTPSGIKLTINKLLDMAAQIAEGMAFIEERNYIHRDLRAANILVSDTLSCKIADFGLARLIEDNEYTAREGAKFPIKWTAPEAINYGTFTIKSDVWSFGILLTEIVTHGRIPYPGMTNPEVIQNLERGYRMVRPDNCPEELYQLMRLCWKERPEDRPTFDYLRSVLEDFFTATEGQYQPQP

[9] = biological target: CDK6/cyclin D3 (Homo sapiens) (UniProt P30281+Q00534); test: Inhibition of human CDK6/cyclin D3 assessed as residual activity at 1 uM relative to control; type: protein-complex assay
[10] = biological target: T1, Phosphatidylinositol 5-phosphate 4-kinase type-2 alpha (Homo sapiens) (UniProt P48426); test: Inhibition of human PIP4K2alpha assessed as residual activity at 1 uM relative to control
T1 sequence (whole entry): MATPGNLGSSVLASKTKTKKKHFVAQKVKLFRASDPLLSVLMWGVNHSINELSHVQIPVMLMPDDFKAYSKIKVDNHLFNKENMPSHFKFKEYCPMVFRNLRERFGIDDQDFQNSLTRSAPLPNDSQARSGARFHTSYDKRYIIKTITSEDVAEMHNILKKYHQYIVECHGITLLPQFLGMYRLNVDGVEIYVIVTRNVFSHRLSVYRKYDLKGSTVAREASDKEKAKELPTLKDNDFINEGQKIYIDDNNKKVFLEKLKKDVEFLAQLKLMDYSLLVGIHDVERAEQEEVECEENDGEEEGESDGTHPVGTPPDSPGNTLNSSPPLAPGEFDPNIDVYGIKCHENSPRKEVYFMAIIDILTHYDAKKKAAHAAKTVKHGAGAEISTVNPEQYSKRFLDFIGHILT

[11] = biological target: T2, Cytoplasmic tyrosine-protein kinase BMX (Homo sapiens) (UniProt P51813); test: Inhibition of human BMX assessed as residual activity at 1 uM relative to control
T2 sequence (whole entry): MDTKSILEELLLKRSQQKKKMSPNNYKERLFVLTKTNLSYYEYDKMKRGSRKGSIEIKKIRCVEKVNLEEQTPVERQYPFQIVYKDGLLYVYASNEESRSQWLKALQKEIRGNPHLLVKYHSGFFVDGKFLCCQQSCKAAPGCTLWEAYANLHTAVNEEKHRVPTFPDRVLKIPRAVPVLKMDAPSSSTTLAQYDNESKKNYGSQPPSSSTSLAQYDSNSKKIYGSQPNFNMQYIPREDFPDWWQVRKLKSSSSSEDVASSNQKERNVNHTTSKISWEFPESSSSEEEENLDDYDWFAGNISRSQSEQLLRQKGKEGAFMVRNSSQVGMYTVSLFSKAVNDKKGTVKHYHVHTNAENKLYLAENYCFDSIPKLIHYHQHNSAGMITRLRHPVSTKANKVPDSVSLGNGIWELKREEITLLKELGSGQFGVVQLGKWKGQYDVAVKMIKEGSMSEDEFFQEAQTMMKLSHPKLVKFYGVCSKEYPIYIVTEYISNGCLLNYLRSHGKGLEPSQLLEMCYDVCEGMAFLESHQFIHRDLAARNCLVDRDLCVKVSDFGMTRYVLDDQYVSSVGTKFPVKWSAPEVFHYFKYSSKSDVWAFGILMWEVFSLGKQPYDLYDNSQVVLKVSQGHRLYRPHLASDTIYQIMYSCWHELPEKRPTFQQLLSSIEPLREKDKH

[12] = biological target: T3, Interleukin-1 receptor-associated kinase 4 (Homo sapiens) (UniProt Q9NWZ3); test: Inhibition of human IRAK4 assessed as residual activity at 1 uM relative to control
T3 sequence (whole entry): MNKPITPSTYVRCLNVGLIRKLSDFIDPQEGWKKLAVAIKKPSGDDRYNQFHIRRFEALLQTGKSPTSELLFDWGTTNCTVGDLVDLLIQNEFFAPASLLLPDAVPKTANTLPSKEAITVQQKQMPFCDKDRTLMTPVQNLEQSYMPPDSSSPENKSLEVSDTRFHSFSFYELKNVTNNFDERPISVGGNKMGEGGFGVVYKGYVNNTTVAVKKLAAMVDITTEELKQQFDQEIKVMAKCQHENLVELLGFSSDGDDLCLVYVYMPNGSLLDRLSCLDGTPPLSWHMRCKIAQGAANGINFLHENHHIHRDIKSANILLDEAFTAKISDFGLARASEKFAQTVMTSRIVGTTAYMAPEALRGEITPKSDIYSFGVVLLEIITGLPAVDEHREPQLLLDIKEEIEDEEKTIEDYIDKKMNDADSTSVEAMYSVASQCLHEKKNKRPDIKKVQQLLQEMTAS

[13] = biological target: RAF proto-oncogene serine/threonine-protein kinase (Homo sapiens) (UniProt P04049); test: Inhibition of human c-RAF assessed as residual activity at 1 uM relative to control
Sequence of RAF proto-oncogene serine/threonine-protein kinase (Homo sapiens) (P04049 whole entry): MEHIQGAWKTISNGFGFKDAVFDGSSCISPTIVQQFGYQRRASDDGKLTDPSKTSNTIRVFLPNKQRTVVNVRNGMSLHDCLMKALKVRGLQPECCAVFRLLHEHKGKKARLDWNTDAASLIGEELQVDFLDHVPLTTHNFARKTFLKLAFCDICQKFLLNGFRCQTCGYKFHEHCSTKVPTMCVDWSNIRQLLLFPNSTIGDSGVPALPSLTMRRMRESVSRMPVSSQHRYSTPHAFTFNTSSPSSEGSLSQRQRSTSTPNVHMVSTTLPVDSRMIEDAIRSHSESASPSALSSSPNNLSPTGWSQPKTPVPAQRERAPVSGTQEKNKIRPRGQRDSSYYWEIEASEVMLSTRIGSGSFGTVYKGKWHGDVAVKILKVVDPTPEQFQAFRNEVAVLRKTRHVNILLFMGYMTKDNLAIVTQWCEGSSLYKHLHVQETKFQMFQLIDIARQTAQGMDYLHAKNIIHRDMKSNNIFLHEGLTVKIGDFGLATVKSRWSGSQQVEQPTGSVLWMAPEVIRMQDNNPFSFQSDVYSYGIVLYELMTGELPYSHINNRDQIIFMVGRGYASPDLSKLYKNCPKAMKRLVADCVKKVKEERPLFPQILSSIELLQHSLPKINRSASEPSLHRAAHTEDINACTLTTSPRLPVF

[14] = biological target: Tyrosine-protein kinase JAK2 (Homo sapiens) (UniProt O60674); test: Inhibition of human JAK2 assessed as residual activity at 1 uM relative to control
[15] = biological target: Proto-oncogene tyrosine-protein kinase Src (Homo sapiens) (UniProt P12931); test: Inhibition of human SRC (1 to 530) assessed as residual activity at 1 uM relative to control
Sequence of Proto-oncogene tyrosine-protein kinase Src (Homo sapiens) (P12931 2-536 limits assumed): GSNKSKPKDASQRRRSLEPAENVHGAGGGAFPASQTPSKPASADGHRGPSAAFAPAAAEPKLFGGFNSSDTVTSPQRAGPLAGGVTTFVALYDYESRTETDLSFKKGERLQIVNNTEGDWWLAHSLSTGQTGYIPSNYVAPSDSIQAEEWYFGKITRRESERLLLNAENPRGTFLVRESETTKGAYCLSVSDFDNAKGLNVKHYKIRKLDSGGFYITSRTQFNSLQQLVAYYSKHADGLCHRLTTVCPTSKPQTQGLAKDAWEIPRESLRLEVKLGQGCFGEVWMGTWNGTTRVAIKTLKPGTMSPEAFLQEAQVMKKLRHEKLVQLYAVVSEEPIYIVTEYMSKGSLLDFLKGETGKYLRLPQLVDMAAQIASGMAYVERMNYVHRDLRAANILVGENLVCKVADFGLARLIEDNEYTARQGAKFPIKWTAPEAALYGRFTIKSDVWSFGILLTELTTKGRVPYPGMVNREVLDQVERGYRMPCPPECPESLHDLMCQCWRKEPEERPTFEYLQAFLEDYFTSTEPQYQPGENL

[16] = biological target: Serine/threonine-protein kinase MARK1 (Homo sapiens) (UniProt Q9P0L2); test: Inhibition of human MARK1 assessed as residual activity at 1 uM relative to control

Sequence of Glycogen synthase kinase-3 beta (Homo sapiens) (P49841 whole entry, looked up): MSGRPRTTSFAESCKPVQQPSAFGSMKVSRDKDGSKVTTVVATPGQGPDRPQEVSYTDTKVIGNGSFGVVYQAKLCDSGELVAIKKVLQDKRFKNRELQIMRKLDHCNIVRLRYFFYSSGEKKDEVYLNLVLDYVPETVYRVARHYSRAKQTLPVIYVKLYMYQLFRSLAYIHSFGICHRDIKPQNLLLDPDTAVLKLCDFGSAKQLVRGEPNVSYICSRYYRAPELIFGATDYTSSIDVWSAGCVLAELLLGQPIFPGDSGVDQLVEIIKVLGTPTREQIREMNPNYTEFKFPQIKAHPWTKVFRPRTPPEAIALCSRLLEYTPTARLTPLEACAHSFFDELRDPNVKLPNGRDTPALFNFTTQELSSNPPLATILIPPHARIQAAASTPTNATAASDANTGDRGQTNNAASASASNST

Compound | Activity [1] | Activity (Aurora kinase B) | Activity [2] | Activity [3] | Activity [4] | Activity [5] | Activity [6] | Activity [7] | Activity [8] | Activity [9] | Activity [10] | Activity [11] | Activity [12] | Activity [13] | Activity [14] | Activity [15] | Activity [16]
COc1ccc(-c2nc3cc(-c4csc(C(=O)NCC(C)(C)C)c4)cnc3[nH]2)cc1 | 106% | 75% | 112% | 73% | 91% | 91% | 94% | 81% | 71% | 105% | 87% | 100% | 81% | 108% | 105% | 47% | 58%
COc1ccc(-c2nc3cc(-c4csc(C(=O)NCCC(C)C)c4)cnc3[nH]2)cc1 | 83% | 78% | 107% | 76% | 89% | 95% | 96% | 82% | 47% | 102% | 95% | 105% | 81% | 92% | 100% | 23% | 61%
COc1ccc(-c2nc3cc(-c4csc(C(=O)NCC(C)C)c4)cnc3[nH]2)cc1 | 102% | 43% | 103% | 63% | 101% | 94% | 91% | 93% | 56% | 103% | 85% | 92% | 75% | 96% | 108% | 25% | 48%
